Tests used:
[1] = test system: newborn rat cultured DRG neurons; assay: [Ca2+]i mobilization in cultured DRG neurons (Fura-2); assay type: cell-based
Protocol: Dorsal root ganglia (DRG) were removed from 1-3 days old rats and dissociated into single cells according to well established procedures. Cells, plated on coated glass coverslips were loaded with Fura-2-AM-ester to detect relative intracellular calcium ([Ca^2+]i) changes.
During the Ca^2+ fluorescence the cells were excited with electrical stimulation (10 Hz, 1 ms, 0.40 mA/cm^2 for 10 sec) twice with a resting period between each stimulation of 20 min. These experiments were performed in the presence or absence of 100 nM charybdotoxin.

[2] = test system: slices of rat dorsal spinal cord; assay: CGRP-LI outflow from slices of rat dorsal spinal cord (EIA); assay type: cell-based
Protocol: (§1) Slices of guinea pig trachea and bronchi or of rat dorsal spinal cord were prepared and transferred to perfusion chambers and perfused. After an equilibration period, samples were collected before, during and after the delivery of an excitatory stimulus (KCl 80 mM). The effect of Andolast was compared with the effect of its vehicle. CGRP-like immunoreactivity (GCRP-LI) was measured by enzyme immunoassay (EIA).
In the rat dorsal spinal cord the experiments with Andolast were performed also in the presence of 100 nM charybdotoxin.

[3] = test system: slices of guinea pig airways; assay: CGRP-LI outflow from slices of guinea pig airways (EIA); assay type: cell-based
Protocol: as §1

[4] = test system: guinea pig isolated bronchial rings; assay: eNANC contractile response of isolated guinea pig bronchial rings; assay type: cell-based
Protocol: Guinea pig bronchial rings were mounted in organ baths. After an equilibration period the eNANC contractile response to EFS (5 Hz, 20 sec, 0.5 ms pulse width at 40 V) in the presence of atropine (1 μM) was studied. The effects of Andolast or its vehicle on the eNANC were studied in parallel experiments in the presence or absence of 100 nM charybdotoxin. The ability of Andolast to affect the direct bronchoconstrictor activity of SP was also studied.

[5] = test system: human B lymphocytes from allergic donors; assay: IL-4 dependent IgE synthesis by human B lymphocytes; assay type: cell-based
T lymphocytes (Th2) = assay: Treatment course in atopic mild-moderate asthmatic patients; assay type: in vivo, human; details: standard treatment course

SMILES: O=C(Nc1ccc(-c2nn[nH]n2)cc1)c1ccc(-c2nn[nH]n2)cc1 [Andolast, N-4-(1H-tetrazol-5-yl)phenyl-4-(1H-tetrazol-5-yl)benzamide]
- inhibitory effect on EFS-induced [Ca2+]i mobilization in presence of charybdotoxin ([1]; 100 nM charybdotoxin (ChTX)): completely reversed
- response to capsaicin ([Ca2+]i) ([1]; capsaicin 0.1 μM, pretreatment with Andolast 10 μM): not affected
- mobilization of [Ca2+]i in response to ionomycin ([1]; pre-treatment with Andolast 10 μM or its vehicle): similar
- response to EFS ([Ca2+]i mobilization) ([1]; pretreatment with Andolast compared to vehicle, EFS 10 Hz, 1 ms, 0.40 mA/cm2 for 10 sec): diminished the response to EFS
- inhibition of high K+ induced CGRP-LI outflow in presence of charybdotoxin ([2]; 100 nM charybdotoxin): completely abrogated
- maximum inhibition of the outflow of CGRP-LI induced by high K+ medium ([2]; Andolast 1 μM, KCl 80 mM): 48 % of vehicle
- outflow of CGRP-LI (without stimulus) ([2]; Andolast 0.1-1 μM, rat dorsal spinal cord slices): did not cause any significant increase
- outflow of CGRP-LI induced by high K+ medium ([2]; KCl 80 mM, rat dorsal spinal cord slices): concentration-dependent inhibition
- outflow of CGRP-LI (without stimulus) ([3]; Andolast 0.1-1 μM, guinea pig airway slices): did not cause any significant increase
- inhibition at 1 µM ([3]; Cavia porcellus, Andolast 1 μM, KCl 80 mM, read-out: inhibition of the CGRP-LI outflow induced by high K+ medium): 67%
- contractile response to SP ([4]; Andolast 10 μM): did not affect
- inhibition at 10 µM ([4]; Cavia porcellus, 10 μM Andolast, atropine 1 μM, read-out: maximum inhibition of the contractile response to EFS): 45%
- effect on EFS contraction in presence of charybdotoxin ([4]; charybdotoxin 0.1 μM): completely abrogated
- contractile response to EFS (eNANC) ([4]; in the presence of atropine (1 μM), pretreatment with Andolast): diminished dose-dependently
- IL-4 dependent IgE synthesis [5]: potent inhibitory effect
- T lymphocytes (Th2) production of IL-5 (T lymphocytes (Th2)): inhibitory effect
- percentage of eosinophils in the sputum (T lymphocytes (Th2)): decrease

Reference: patent US7482371B2, “N-phenylbenzamide derivatives as drugs for the treatment of COPD” (Rottapharm S.p.A., priority 2004, dated 2009)
